{
  "source": "patent US9937154B2",
  "about": "“Use of telmisartan to prevent and treat graft versus host disease and other alloimmune and autoimmune diseases” (Hackensack University Medical Center, priority 2015, dated 2018)",
  "key": {"[1]": {"target": "human ROCK I (Homo sapiens, UniProt Q13464)", "sequence (Q13464 whole entry)": "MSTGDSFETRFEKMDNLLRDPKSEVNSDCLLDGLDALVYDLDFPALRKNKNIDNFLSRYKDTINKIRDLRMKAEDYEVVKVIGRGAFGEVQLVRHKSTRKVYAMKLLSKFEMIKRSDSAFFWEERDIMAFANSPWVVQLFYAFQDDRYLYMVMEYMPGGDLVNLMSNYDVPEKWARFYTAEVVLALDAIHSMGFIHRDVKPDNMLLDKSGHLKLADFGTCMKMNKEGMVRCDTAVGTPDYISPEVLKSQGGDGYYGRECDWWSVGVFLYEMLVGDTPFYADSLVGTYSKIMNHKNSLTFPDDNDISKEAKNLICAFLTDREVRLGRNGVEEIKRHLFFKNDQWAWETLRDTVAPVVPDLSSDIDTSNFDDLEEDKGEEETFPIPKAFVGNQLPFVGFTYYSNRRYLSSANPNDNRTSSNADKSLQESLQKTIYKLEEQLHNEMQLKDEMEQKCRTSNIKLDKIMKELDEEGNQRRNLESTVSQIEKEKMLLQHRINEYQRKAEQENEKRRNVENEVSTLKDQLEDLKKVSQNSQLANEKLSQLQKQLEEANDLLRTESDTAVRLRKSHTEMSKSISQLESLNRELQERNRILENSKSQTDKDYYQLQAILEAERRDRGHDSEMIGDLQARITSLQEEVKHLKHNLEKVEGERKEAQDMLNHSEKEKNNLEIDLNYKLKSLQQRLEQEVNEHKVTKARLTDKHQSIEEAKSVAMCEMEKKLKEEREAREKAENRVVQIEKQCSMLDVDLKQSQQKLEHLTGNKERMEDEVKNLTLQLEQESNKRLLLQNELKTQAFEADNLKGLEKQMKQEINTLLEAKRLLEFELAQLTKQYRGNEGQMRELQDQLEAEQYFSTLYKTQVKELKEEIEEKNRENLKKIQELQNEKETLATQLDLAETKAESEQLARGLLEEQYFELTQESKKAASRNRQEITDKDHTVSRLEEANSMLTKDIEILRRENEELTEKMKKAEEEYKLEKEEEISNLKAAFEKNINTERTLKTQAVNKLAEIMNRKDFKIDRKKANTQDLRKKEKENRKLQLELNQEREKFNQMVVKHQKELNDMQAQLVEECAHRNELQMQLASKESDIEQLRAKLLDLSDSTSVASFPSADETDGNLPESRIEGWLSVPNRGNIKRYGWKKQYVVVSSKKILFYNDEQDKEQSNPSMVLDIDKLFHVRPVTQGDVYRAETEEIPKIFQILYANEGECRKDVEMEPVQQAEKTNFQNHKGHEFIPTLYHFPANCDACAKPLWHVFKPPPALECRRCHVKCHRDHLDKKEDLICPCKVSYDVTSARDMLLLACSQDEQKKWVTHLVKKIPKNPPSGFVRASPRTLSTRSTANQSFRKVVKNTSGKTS", "conditions": "cited from earlier work"}, "[2]": {"target": "T1, ROCK II (Homo sapiens, UniProt O75116)", "T1 sequence (O75116 whole entry)": "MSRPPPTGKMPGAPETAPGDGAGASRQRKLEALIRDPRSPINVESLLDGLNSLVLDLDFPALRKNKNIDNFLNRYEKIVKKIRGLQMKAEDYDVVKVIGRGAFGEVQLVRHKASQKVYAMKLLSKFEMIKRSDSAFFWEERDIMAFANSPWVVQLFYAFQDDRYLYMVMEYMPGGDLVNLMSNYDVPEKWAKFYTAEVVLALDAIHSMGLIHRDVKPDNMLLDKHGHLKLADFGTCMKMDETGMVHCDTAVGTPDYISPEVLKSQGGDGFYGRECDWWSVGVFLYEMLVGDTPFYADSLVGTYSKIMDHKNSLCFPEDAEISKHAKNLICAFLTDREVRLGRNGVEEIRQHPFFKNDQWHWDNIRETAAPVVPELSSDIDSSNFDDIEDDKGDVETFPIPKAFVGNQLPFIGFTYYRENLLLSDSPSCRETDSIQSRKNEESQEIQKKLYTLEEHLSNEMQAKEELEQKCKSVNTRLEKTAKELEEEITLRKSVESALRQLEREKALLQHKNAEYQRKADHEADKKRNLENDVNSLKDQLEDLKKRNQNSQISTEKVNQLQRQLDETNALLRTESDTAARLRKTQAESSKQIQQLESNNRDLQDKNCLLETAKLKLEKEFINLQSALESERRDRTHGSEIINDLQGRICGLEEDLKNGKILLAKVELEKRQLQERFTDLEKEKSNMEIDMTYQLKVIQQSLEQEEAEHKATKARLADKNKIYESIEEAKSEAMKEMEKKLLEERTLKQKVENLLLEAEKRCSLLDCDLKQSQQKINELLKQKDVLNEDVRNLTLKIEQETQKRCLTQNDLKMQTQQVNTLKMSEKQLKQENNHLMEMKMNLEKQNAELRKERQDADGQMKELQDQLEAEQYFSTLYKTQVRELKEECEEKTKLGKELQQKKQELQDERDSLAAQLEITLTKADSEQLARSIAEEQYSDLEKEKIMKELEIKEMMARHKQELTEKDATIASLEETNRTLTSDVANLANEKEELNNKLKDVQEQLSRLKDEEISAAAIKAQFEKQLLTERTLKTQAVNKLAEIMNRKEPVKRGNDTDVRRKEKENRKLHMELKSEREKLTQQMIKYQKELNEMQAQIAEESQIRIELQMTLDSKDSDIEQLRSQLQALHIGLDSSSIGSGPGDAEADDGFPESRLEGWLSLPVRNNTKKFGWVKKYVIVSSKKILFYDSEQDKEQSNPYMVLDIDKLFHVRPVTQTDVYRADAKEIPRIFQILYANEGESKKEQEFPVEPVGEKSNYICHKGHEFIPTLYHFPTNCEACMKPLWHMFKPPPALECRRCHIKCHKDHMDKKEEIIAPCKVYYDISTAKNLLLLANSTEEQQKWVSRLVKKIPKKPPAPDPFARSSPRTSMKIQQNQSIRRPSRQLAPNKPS", "conditions": "cited from earlier work"}, "[3]": {"system": "rat models of inflammatory and noninflammatory arthritic pain", "conditions": "cited from earlier work"}, "[4]": {"system": "C3B6 mice (GVHD model)", "experiment": "GVHD-associated weight loss and diarrhea in C3B6 mice", "type": "in vivo, mouse", "method": "It is well known that weight loss occurs in patients with GVHD. Jacobsohn D A, et al., Bone Marrow […]. 29(3): 231-236 (2002). […] C3B6 mice were treated according to Example 1. […] Despite the similar initial weight losses of Fasudil® treated and untreated T cell recipients, the two groups had different rates of diarrhea. […] Diarrhea resolved by the fourth week among survivors in both groups."}, "[5]": {"system": "C3B6 mice (GVHD model)", "experiment": "GVHD-associated skin inflammation in C3B6 mice", "type": "in vivo, mouse", "conditions": "ATBM+T cells+Fasudil recipient mice", "method": "Skin is most commonly affected and usually the first organ involved in GVHD. Ferrara J L M, et al., Lancet. 373(9674): 1550-1561 (2009). In this study, C3B6 mice were used to determine the effect of ROCK inhibitors on GVHD-associated skin inflammation.\nC3B6 mice were treated according to Example 1. […] . Skin inflammation in C3B6 treated mice occurred in the fourth week and gradually waned over a two week-period."}, "[6]": {"system": "responding splenocytes from C3B6 hosts", "experiment": "mouse IFN-γ ELISPOT after one-way mixed lymphocyte reaction of host splenocytes", "type": "cell-based", "method": "Classically, a MLR is carried out by co-incubating lymphocytes from two strains that differ in histocompatibility genes for several days, and the proliferative response of T cells of one lymphocyte population to histocompatibility antigens of the other then measured.\nSecretion of IFN-γ by responder cells in a MLR was used as an indicator of cytotoxic T lymphocyte function (i.e., alloreactivity). Briefly, spleens from C3B6 mice treated according to Example 1 were harvested at day 10 (C3H donor T cells migrating to the spleen with few de novo generated T cells emigrating from the host thymus) or at day 84 (spleens containing newly generated T cells maturing within the host thymus; i.e., allotolerant of host B6 parental antigens) post-transplant for use as responders. Spleens from C3H, C3B6 and DBA mice (Jackson Laboratory) were harvested for use as stimulators. Spleens were homogenized and the cells were washed twice with Phosphate Buffered Saline (PBS) (Sigma Aldrich, St. Louis, Mo., Catalog No. P5493, or equivalent). Red blood cells were separated from lymphocytes using Ficoll®. Briefly, cells were transferred to 50 mL conical tubes containing 15 mL of Ficoll®-Paque PLUS (GE Healthcare, Waukesha, Wis., Catalog No. 17-1440-03) and centrifuged at 800 rcf (1,900-2,000 rpm) for 20 minutes with centrifuge break off. After centrifugation, the buffy coat layer (containing lymphocytes) was removed and transferred to a new 50 mL conical tube. Phosphate-buffered saline (PBS) without calcium and magnesium (Gibco, Life Technologies, Carlsbad, Calif., Catalog No. 10010-023 or equivalent) was added to the buffy coat layer so that the total volume in the conical tube is equal to 50 mL. The buffy coat layer in PBS was centrifuged at 250 rcf (1,200 rpm) for 10 minutes with centrifuge brake applied. After centrifugation, the PBS was aspirated and the lymphocyte pellet was resuspended in 48 mL of PBS. Lymphocytes resuspended in PBS were centrifuged at 250 rcf (1,200 rpm) for 10 minutes with centrifuge break applied. PBS was aspirated and PBMC pellet resuspended in 12.5% Bovine Serum Albumin (BSA) (Sigma-Aldrich, St. Louis, Mo., Catalog No. A9418-5G or equivalent) in RPMI medium (Sigma-Aldrich, St. Louis, Mo., Catalog No. R7388 or equivalent). Stimulator lymphocytes (from C3H, C3B6 and DBA mouse spleens) were irradiated for 2.5 minutes (2,000 RAD) in a cesium irradiator.\nOne-way MLRs were performed by mixing 1×10^5 lymphocytes from both stimulator and responder cells in a 96-well ELISPOT (eBioscience, San Diego, Calif., Catalog No. 88-7384, or equivalent) capture plate coated with anti-mouse IFN-γ antibody according to manufacturer's protocol. […]"}, "[7]": {"system": "CFSE labeled splenic lymphocytes from C3B6 hosts", "experiment": "CFSE labeling with flow-based assessment of splenic lymphocyte division in one-way MLR", "type": "cell-based, mouse", "conditions": "day 98 survivor mice", "method": "Carboxyfluorescein […] succinimidyl ester (CFSE) labeling (Molecular Probes, Carlsbad, Calif., Catalog No. C34554, or equivalent) with flow cytometry detection was employed to assess lymphocyte cell division in response to alloantigen recognition. Briefly, lymphocytes from responders and stimulators were harvested as described above. For this experiment, sources of stimulator cells included C3H, C3B6 and Balb/c mice. Next, lymphocytes from responders were incubated in CFSE prepared according to manufacturer's protocol at 37° C. for 10 minutes. The staining was quenched by the addition of 5 volumes of ice-cold culture media (12.5% Bovine Serum Albumin (BSA) in RPMI) to the lymphocytes. Lymphocytes were incubated on ice for 5 minutes before pelleting by centrifugation. After centrifugation, the lymphocytes were washed by resuspending and pelleting 3 times in fresh culture media. One-way MLRs were performed by mixing 1×10^5 lymphocytes from both stimulator and CFSE responder cells in a 96-well tissue culture plate (Corning Costar, Tewksbury, Mass., Catalog No. CLS3585 or equivalent). […] After 5 days of incubation, the cells were harvested and analyzed using a flow cytometer with 488 nm excitation and emission filters appropriate for fluorescein. […]"}, "[8]": {"system": "small intestinal crypts", "experiment": "small intestine tissue sections of 90 day survivor mice", "type": "in vivo, mouse", "conditions": "FIG. 7", "description": "(B) Limited inflammation within dashed lines of basal layer and lamina propria, with intact crypts, in 90 day survivor Fasudil® treated mice."}, "[9]": {"system": "animal models of subarachnoid hemorrhage (SAH)", "conditions": "cited from earlier work"}, "[10]": {"system": "SAH patients", "conditions": "over 1400 SAH patients; cited from earlier work"}, "[11]": {"system": "C3B6 mice (GVHD model)", "experiment": "GVHD survival in irradiated C3B6 F1 mice given ATBM and donor T cells", "conditions": "ATBM + T cells + Fasudil i.p. and p.o., n = 26"}, "[12]": {"system": "preconstricted rat aorta", "conditions": "cited from earlier work"}, "[13]": {"system": "rat model of hypertension", "conditions": "cited from earlier work"}, "[14]": {"target": "T1, ROCK II", "conditions": "cited from earlier work", "remark": "listed apart in the source"}, "[15]": {"system": "neutrophil migration", "conditions": "cited from earlier work"}, "[16]": {"conditions": "in vivo; cited from earlier work"}, "[17]": {"system": "ROCK", "conditions": "cited from earlier work"}, "[18]": {"system": "transplant patients (IT GVHD)", "conditions": "cited from earlier work"}},
  "note": "“Also recorded” adds a separate entry of the source. Structures can show the parent of a compound that is named as a salt. Where two headings read alike, the source gives them in different places.",
  "data": [
    {"compound": "O=C(Nc1ccc(-c2ccncc2)cc1)N[C@H](CO)c1ccccc1", "note": "[AS 1892802]", "values": [
      {"measurement": "IC50", "setting": "[1]", "result": 122, "unit": "nM"},
      {"measurement": "IC50", "setting": "[2]", "result": 52, "unit": "nM"},
      {"measurement": "analgesic effects", "setting": "[3]", "result": "exhibits analgesic effects"}
    ]},
    {"compound": "O=S(=O)(c1cccc2cnccc12)N1CCCNCC1", "note": "[Fasudil®, Fasudil]", "values": [
      {"measurement": "mice developing clinically observable diarrhea", "setting": "[4]; between second and third weeks post-transplant", "result": "less than 20%"},
      {"measurement": "weight loss", "setting": "[4]; first three weeks post-transplant, roughly the same as ATBM+T cells mice", "result": "~25", "unit": "% total body weight"},
      {"measurement": "subsequent weight recovery", "setting": "[4]; most experiments, data not shown", "result": "recovered more weight than ATBM+T cells recipient mice"},
      {"measurement": "skin inflammation", "setting": "[5]", "result": "did not prevent skin inflammation"},
      {"measurement": "Day 10 IFN-γ secreting spleen cell frequencies", "setting": "[6]; Concanavalin A positive control", "result": "120.0 per 100,000 cells"},
      {"measurement": "Day 10 IFN-γ secreting spleen cell frequencies", "setting": "[6]; irradiated stimulators C3B6F1 (host), 4 day one-way MLR", "result": "115.6 per 100,000 cells"},
      {"measurement": "Day 10 IFN-γ secreting spleen cell frequencies", "setting": "[6]; irradiated stimulators C3H (self), 4 day one-way MLR", "result": "2.3 per 100,000 cells"},
      {"measurement": "Day 10 IFN-γ secreting spleen cell frequencies", "setting": "[6]; irradiated stimulators DBA (third party), 4 day one-way MLR", "result": "18 per 100,000 cells"},
      {"measurement": "spleen cell division in response to B6C3F1 stimulation", "setting": "[7]; FIG. 6-E", "result": "strongly responded to B6C3F1 stimulation"},
      {"measurement": "spleen cell division in response to Balb/c stimulation", "setting": "[7]; FIG. 6-F", "result": "comparable to their response to Balb/c"},
      {"measurement": "small intestinal crypt inflammation", "setting": "[8]", "result": "minimal small intestinal crypt inflammation"},
      {"measurement": "blood vessel spasm and constriction after subarachnoid bleeding", "setting": "[9]", "result": "effective in reversing blood vessel spasm and constriction"},
      {"measurement": "tolerability and safety", "setting": "[10]", "result": "well tolerated and safe"},
      {"measurement": "Survival Rate (95% CI), 90 day", "setting": "[11]", "result": 73, "unit": "%"},
      {"measurement": "Survival Rate (95% CI), 90 day", "setting": "[11]; listed as Fasudil ®", "result": "73% (55%-88%)"}
    ]},
    {"compound": "CCn1c(-c2nonc2N)nc2cnc(Oc3cccc(NC(=O)c4ccc(OCCN5CCOCC5)cc4)c3)cc21", "note": "[GSK 269962]", "values": [
      {"measurement": "vasorelaxation", "setting": "[12]", "result": "induce vasorelaxation"},
      {"measurement": "blood pressure", "setting": "[13]", "result": "lower blood pressure"}
    ]},
    {"compound": "Cc1cncc2cccc(S(=O)(=O)N3CCCN(C(=O)CN)C[C@@H]3C)c12", "note": "[Glycyl-H-1152 dihydrochloride]", "values": [
      {"measurement": "IC50", "setting": "[14]", "result": 11.8, "unit": "nM"}
    ]},
    {"compound": "Cl.O=c1[nH]ccc2c(S(=O)(=O)N3CCCNCC3)cccc12", "note": "[HA 1100 hydrochloride]", "values": [
      {"measurement": "neutrophil migration", "setting": "[15]", "result": "inhibit neutrophil migration"},
      {"measurement": "vasodilatory effects", "setting": "[16]", "result": "potent vasodilatory effects"}
    ]},
    {"compound": "c1ccc2c(-c3ccncc3)c[nH]c2c1", "note": "[Rockout®]", "values": [
      {"measurement": "IC50", "setting": "[17]; ATP-competitive, reversible", "result": 25000, "unit": "nM"},
      {"measurement": "effect on the activation of ROCK", "setting": "[17]", "result": "does not inhibit the activation of ROCK"}
    ]},
    {"compound": "maraviroc", "values": [
      {"measurement": "IT GVHD and acute (within 100 days) death", "setting": "[18]", "result": "prevented IT GVHD and acute (within 100 days) death; also recorded: no acute deaths"}
    ]}
  ]
}
